According to patent US12312370B2, “Immunoproteasome inhibitors” (Principia Biopharma Inc., priority 2017, dated 2025):

Columns and labels:
[1] = target: immunoproteasome LMP7/B5i subunit (Homo sapiens, UniProt P28062); experiment: Caliper-based proteasome enzymatic activity assay, LMP7; type: biochemical; settings: human recombinant immunoproteasome 0.3 nM, FAM-labeled peptide substrate 1 μM, rt 3 h; read-out: LMP7 subunit IC50
[2] = target: constitutive proteasome β5c unit (Homo sapiens, UniProt P28074); experiment: Caliper-based proteasome enzymatic activity assay, β5c; type: biochemical; settings: human recombinant constitutive proteasome 0.3 nM, FAM-labeled peptide substrate 1 μM, rt 3 h; read-out: β5c subunit IC50

Row | IC50 [1] [nM] | IC50 [2] [nM] | Structure (SMILES)
1 | 72 | 175 | CC(C)C=C(C#N)C(=O)N(C)c1cccc(C[C@H](NCC(F)(F)F)C(=O)N[C@@H](CC(C)C)B(O)O)c1 [Example 27, ((R)-1-((S)-3-(3-(2-cyano-N,4-dimethylpent-2-enamido)phenyl)-2-((2,2,2-trifluoroethyl)amino)propanamido)-3-methylbutyl)boronic acid]
2 | 1.9 | 140 | CC(C)(C=C(C#N)C(=O)N1C[C@H](F)[C@H](OC(=O)N[C@@H](Cc2ccccc2)B(O)O)C1)N1CCC(F)(F)C1 [Example 111, ((R)-1-(((((3R,4S)-1-(2-cyano-4-(3,3-difluoropyrrolidin-1-yl)-4-methylpent-2-enoyl)-4-fluoropyrrolidin-3-yl)oxy)carbonyl)amino)-2-phenylethyl)boronic acid]
3 | 145 | 3920 | CC(C)(C=C(C#N)C(=O)N1CCC[C@@H](NC(=O)N[C@@H](Cc2ccccc2)B(O)O)C1)N1CCC(F)(F)C1 [Example 101, ((R)-1-(3-((R)-1-(2-cyano-4-(3,3-difluoropyrrolidin-1-yl)-4-methylpent-2-enoyl)piperidin-3-yl)ureido)-2-phenylethyl)boronic acid]
4 | > 5000 | > 5000 | C=CC(=O)N1CCCC(C)(OC(=O)N[C@@H](Cc2ccccc2)B(O)O)C1 (single isomer, unassigned) [Example 85]
5 | 206 | 3560 | CC(C)(C=C(C#N)C(=O)N1CC[C@H](NC(=O)N[C@@H](Cc2ccccc2)B(O)O)C1)N1CCC(F)(F)C1 [Example 100, ((R)-1-(3-((S)-1-(2-cyano-4-(3,3-difluoropyrrolidin-1-yl)-4-methylpent-2-enoyl)pyrrolidin-3-yl)ureido)-2-phenylethyl)boronic acid]
6 | 2.4 | > 5000 | CC(C)(C=C(C#N)C(=O)N1CCCC[C@H](OC(=O)N[C@@H](Cc2ccccc2)B(O)O)C1)N1CCOCC1 (single isomer, unassigned) [Example 104]
7 | 2 | 465 | C=CC(=O)N1C2CCC1(COC(=O)N[C@@H](Cc1coc3ccccc13)B(O)O)CC2 [Example 63, (R)-(1-((((7-acryloyl-7-azabicyclo[2.2.1]heptan-1-yl)methoxy)carbonyl)amino)-2-(benzofuran-3-yl)ethyl)boronic acid]
8 | 11 | 186 | CC(C)(C=C(C#N)C(=O)N1CCO[C@@H](CC(=O)N[C@@H](Cc2ccccc2)B(O)O)C1)N1CCC(F)(F)C1 [Example 61, ((R)-1-(2-((S)-4-(2-cyano-4-(3,3-difluoropyrrolidin-1-yl)-4-methylpent-2-enoyl)morpholin-2-yl)acetamido)-2-phenylethyl)boronic acid]
9 | 6.4 | 10.9 | Cc1ccncc1C(=O)N[C@@H](CCCCNC(=O)C(C#N)=CC(C)C)C(=O)N[C@@H](Cc1ccccc1)B(O)O [Example 17, ((R)-1-((S)-6-(2-cyano-4-methylpent-2-enamido)-2-(4-methylnicotinamido)hexanamido)-2-phenylethyl)boronic acid]
10 | 2.7 | 734 | C[C@@H]1CN(C(C)(C)C=C(C#N)C(=O)N2CCCC[C@@H](OC(=O)N[C@@H](Cc3ccccc3)B(O)O)C2)C[C@@H](C)O1 [Example 129]
11 | 1.2 | 3000 | COC(=O)N1CCN(C(C)(C)C=C(C#N)C(=O)N2CCCC[C@H](OC(=O)N[C@@H](Cc3ccccc3)B(O)O)C2)CC1 [Example 108, ((R)-1-(((((S)-1-(2-cyano-4-(4-(methoxycarbonyl)piperazin-1-yl)-4-methylpent-2-enoyl)azepan-3-yl)oxy)carbonyl)amino)-2-phenylethyl)boronic acid]
12 | 0.7 | 279 | CC(C)(C=C(C#N)C(=O)N1C2CCC1(COC(=O)N[C@@H](Cc1ccc(F)cc1)B(O)O)CC2)N1CCC(F)(F)C1 [Example 84, (R)-(1-((((7-(2-cyano-4-(3,3-difluoropyrrolidin-1-yl)-4-methylpent-2-enoyl)-7-azabicyclo[2.2.1]heptan-1-yl)methoxy)carbonyl)amino)-2-(4-fluorophenyl)ethyl)boronic acid]
13 | 2.3 | 520 | CC(C)(C=C(C#N)C(=O)N1C[C@@H](F)[C@H](OC(=O)N[C@@H](Cc2ccccc2)B(O)O)C1)N1CCC(F)(F)C1 [Example 113, ((R)-1-(((((3R,4R)-1-(2-cyano-4-(3,3-difluoropyrrolidin-1-yl)-4-methylpent-2-enoyl)-4-fluoropyrrolidin-3-yl)oxy)carbonyl)amino)-2-phenylethyl)boronic acid]
14 | 9.9 | 255 | CC(C)(C=C(C#N)C(=O)N1CCC[C@H](CC(=O)N[C@@H](Cc2ccccc2)B(O)O)C1)N1CCC(F)(F)C1 [Example 56, ((R)-1-(2-((R)-1-(2-cyano-4-(3,3-difluoropyrrolidin-1-yl)-4-methylpent-2-enoyl)piperidin-3-yl)acetamido)-2-phenylethyl)boronic acid]
15 | 13.4 | 21.1 | CC(C)C=C(C#N)C(=O)NCCCC[C@H](NS(C)(=O)=O)C(=O)N[C@@H](Cc1ccccc1)B(O)O [Example 12, ((R)-1-((S)-6-(2-cyano-4-methylpent-2-enamido)-2-(methylsulfonamido)hexanamido)-2-phenylethyl)boronic acid]
16 | 1.2 | > 5000 | CC(C)(C=C(C#N)C(=O)N1CCCC[C@@H](OC(=O)N[C@@H](CC2=CCCC2)B(O)O)C1)N1CCOCC1 [Example 138, ((R)-1-(((((R)-1-(2-cyano-4-methyl-4-morpholinopent-2-enoyl)azepan-3-yl)oxy)carbonyl)amino)-2-(cyclopent-1-en-1-yl)ethyl)boronic acid]
17 | 4.3 | 3.3 | C=CS(=O)(=O)N(C)c1cccc(C[C@H](NC(=O)c2cc(Cl)ccc2Cl)C(=O)N[C@@H](Cc2ccccc2)B(O)O)c1 [Example 16, ((R)-1-((S)-2-(2,5-dichlorobenzamido)-3-(3-(N-methylvinylsulfonamido)phenyl)propanamido)-2-phenylethyl)boronic acid]
18 | 0.9 | 832 | C[C@H]1CN(C(C)(C)C=C(C#N)C(=O)N2C3CCC2(COC(=O)N[C@@H](Cc2ccccc2)B(O)O)CC3)C[C@H](C)O1 [Example 123, ((R)-1-((((7-(2-cyano-4-((2S,6S)-2,6-dimethylmorpholino)-4-methylpent-2-enoyl)-7-azabicyclo[2.2.1]heptan-1-yl)methoxy)carbonyl)amino)-2-phenylethyl)boronic acid]
19 | 1.3 | 1280 | CC1(C)CN(C(C)(C)C=C(C#N)C(=O)N2CCCC[C@@H](OC(=O)N[C@@H](Cc3ccccc3)B(O)O)C2)CCO1 [Example 136, ((R)-1-(((((R)-1-(2-cyano-4-(2,2-dimethylmorpholino)-4-methylpent-2-enoyl)azepan-3-yl)oxy)carbonyl)amino)-2-phenylethyl)boronic acid]
20 | 18.3 | 207 | C=CC(=O)N1C[C@H](F)[C@H](OC(=O)N[C@@H](Cc2ccccc2)B(O)O)C1 [Example 115, ((R)-1-(((((3R,4S)-1-acryloyl-4-fluoropyrrolidin-3-yl)oxy)carbonyl)amino)-2-phenylethyl)boronic acid]
